Source: the RepoRT retention time repository (doi:10.1016/j.jhazmat.2019.121712)

Test: Thermo Scientific Acclaim RSLC 120 C18, 100 × 2.1 mm, 2.2 µm, 30 °C; A: 90% water + 10% methanol + 0.01% formic acid + 5 mM ammonium formate; B: methanol + 0.01% formic acid + 5 mM ammonium formate; gradient (min/%B) 0.1/1 3/39 14/99.9 16/99.9
Details: stereoisomer not certain

SMILES	LC retention time
O=c1cn[nH][nH]1	5.99 min
CCOC(=O)CC(SP(=S)(OC)OC)C(=O)OCC (stereo unspecified)	9.59 min
CC(COc1ccccc1Cc1ccccc1)N1CCCCC1 (stereo unspecified)	8.32 min
CNC(C)Cc1ccccc1OC (stereo unspecified)	4.69 min
CCc1cc2c(s1)-n1c(C)nnc1CN=C2c1ccccc1	8.43 min
CC1C(c2ccccc2)OCCN1C (stereo unspecified)	4.06 min
CNC(=O)Oc1cccc(C)c1	6.59 min
COc1cccc(C2(O)CCCCC2C[N+](C)(C)[O-])c1 (stereo unspecified)	5.24 min
CC1=C(C)S(=O)(=O)CCS1(=O)=O	3.73 min
Cc1ncc(CSSCc2cnc(C)c(O)c2CO)c(CO)c1O	5.54 min
CNC(=O)Oc1ccccc1C1OCCO1	5.16 min
CCCCCc1cc(O)c2c(c1)OC(C)(C)C1CCC(C)=CC21 (stereo unspecified)	14 min
COC(=O)Nc1nc2ccc(C(=O)c3ccccc3)cc2[nH]1	8.25 min
CC(C)Nc1nc(NC(C)C)[nH]c(=O)n1	5.96 min
CNC(=O)C(C)SCCSP(=O)(OC)OC (stereo unspecified)	5.02 min
CC1(C)C(C(=O)c2cn(CCN3CCOCC3)c3ccccc23)C1(C)C	10.7 min
c1ccc2[nH]c(-c3cscn3)nc2c1	6.15 min
CC(C)OC(=O)Nc1ccccc1	8.11 min
CCCCCn1c2ccccc2c2cc(C(=O)c3cccc4ccccc34)ccc21	14.2 min
CCSC(=O)N1CCCCCC1	9.89 min
CCCCCn1cc(C(=O)c2cccc3ccccc23)c2ccc(O)cc21	11.2 min
NC1CCc2cc3c(cc2C1)OCO3 (stereo unspecified)	4.32 min
CN1CCCC1Cc1c[nH]c2ccc(CCS(=O)(=O)c3ccccc3)cc12 (stereo unspecified)	5.51 min
CCc1ccc(CCOc2ccc(CC3SC(=O)NC3=O)cc2)nc1 (stereo unspecified)	9.09 min

SMILES	LC retention time
COP(=S)(OC)SCn1nnc2ccccc2c1=O	8.89 min
COc1cc(C=C2CCCC(=Cc3ccc(O)c(OC)c3)C2=O)ccc1O	9.59 min
CCC1CN2CCc3c([nH]c4cccc(OC)c34)C2CC1C(=COC)C(=O)OC (stereo unspecified)	6.23 min
C=CC=CCC1=C(C)C(OC(=O)C2C(C=C(C)C)C2(C)C)CC1=O (stereo unspecified)	12.9 min
CNc1nc(C)c(C)c(OC(=O)N(C)C)n1	5.89 min
CN1C2CCC1C(C(=O)O)C(OC(=O)c1ccccc1)C2 (stereo unspecified)	4.68 min
NC(=O)c1cc[n+](CC2=C(C(=O)[O-])N3C(=O)C(NC(=O)Cc4cccs4)C3SC2)cc1 (stereo unspecified)	4.03 min
CCN(CC)c1nc(C)cc(OP(=S)(OC)OC)n1	11.3 min
COCc1cnc(C2=NC(C)(C(C)C)C(=O)N2)c(C(=O)O)c1 (stereo unspecified)	4.63 min
CCC(NC)C(=O)c1ccccc1 (stereo unspecified)	4.26 min
COC12CCC3(CC1C(C)(O)C(C)(C)C)C1Cc4ccc(O)c5c4C3(CCN1CC1CC1)C2O5 (stereo unspecified)	7.96 min
CC(N)Cc1ccc2[nH]ccc2c1 (stereo unspecified)	4.07 min
NCCc1cnc[nH]1	1.58 min
COc1ccc2[nH]cc(CCN(C)C)c2c1	3.98 min
COC(=O)C1=C(C)NC(C)=C(C(=O)OC(C)(C)CN(C)CCC(c2ccccc2)c2ccccc2)C1c1cccc([N+](=O)[O-])c1 (stereo unspecified)	11.1 min
CCNC(C)Cc1ccc2c(c1)OCO2 (stereo unspecified)	4.39 min
CC(NC(=O)C(N)CC(=O)O)C(=O)NC1C(C)(C)SC1(C)C (stereo unspecified)	6.09 min
C#CC1(O)CCC2C3CCC4=CC(=O)CCC4C3CCC21C (stereo unspecified)	9.15 min
CCCCCn1nc(C(=O)NC(C(N)=O)C(C)(C)C)c2ccccc21 (stereo unspecified)	11.2 min
O=C(NC1CCN(CCc2c[nH]c3ccccc23)CC1)c1ccccc1	5.37 min
CSc1nc(NC2CC2)nc(NC(C)(C)C)n1	10.5 min
CCCc1nn(C)c2c(=O)[nH]c(-c3cc(C(=O)N4CCN(CC)CC4)ccc3OCC)nc12	6.78 min
CC(Cc1ccccc1)NCCC#N (stereo unspecified)	4.14 min
CCCCC1(COC(=O)CCC(=O)O)C(=O)N(c2ccccc2)N(c2ccccc2)C1=O	9.61 min

SMILES	LC retention time
Oc1ccc2c3c1OC1C(O)CCC4(O)C(C2)N(CC2CCC2)CCC314 (stereo unspecified)	4.17 min
c1ccc2c(c1)Cc1cccnc1N1CCNCC21 (stereo unspecified)	5.31 min
COCC(=O)N(c1c(C)cccc1C)C(C)C(=O)OC (stereo unspecified)	8.22 min
CC(C)(C)NC(=O)C1CN(Cc2cccnc2)CCN1CC(O)CC(Cc1ccccc1)C(=O)NC1c2ccccc2CC1O (stereo unspecified)	9.79 min
CNC(C)CC1CCCCC1 (stereo unspecified)	5.74 min
CC(CCN1CCOCC1)OC(=O)C1(c2ccccc2)CCOCC1 (stereo unspecified)	6.12 min
CN(CC=Cc1ccccc1)Cc1cccc2ccccc12	8.52 min
CCCCCn1cc(C(=O)Cc2cccc(OC)c2)c2ccccc21	11.6 min
O=C(O)CCCn1cc(C(=O)c2cccc3ccccc23)c2ccccc21	9.33 min
CC(CN1CCN(CCOCCO)CC1)CN1c2ccccc2Sc2ccccc21 (stereo unspecified)	9.08 min
COC(=O)C(NC(=O)c1nn(CC2CCCCC2)c2ccccc12)C(C)C (stereo unspecified)	12.4 min
CC12CCC(=O)C=C1CCC1C2CCC2(C)C1CCC2(C)O (stereo unspecified)	10.4 min
COc1ccc2nc(S(=O)Cc3ncc(C)c(OC)c3C)[nH]c2c1 (stereo unspecified)	7.81 min
CCCSc1ccc2nc(NC(=O)OC)[nH]c2c1	9.19 min
CCCCCn1cc(C(=O)Cc2ccc(OC)cc2)c2ccccc21	11.6 min
Cc1ccc(C(=CCN2CCCC2)c2ccccn2)cc1	6.28 min
COC(=O)C1C(O)CC2CCC1N2C (stereo unspecified)	1.38 min
CCc1nnc(NS(=O)(=O)c2ccc(N)cc2)s1	4.81 min
CN(C)CCc1c[nH]c2ccc(CC3COC(=O)N3)cc12 (stereo unspecified)	3.61 min
Cc1cnc(NC(=O)C2=C(O)c3ccccc3S(=O)(=O)N2C)s1	7.09 min
CCCCn1cc(C(=O)c2cccc3ccccc23)c2ccccc21	11.9 min
CCCc1nn(C)c2c(=O)[nH]c(-c3cc(C(=O)CN4CCN(CC)C(=O)C4)ccc3OCC)nc12	9.09 min
CC(C)CN(CC(O)C(Cc1ccccc1)NC(=O)OC1COC2OCCC12)S(=O)(=O)c1ccc(N)cc1 (stereo unspecified)	8.21 min
CC1=C(C(=O)Nc2ccccc2)SCCO1	7.46 min

SMILES	LC retention time
CCc1cc(OC)c(CCN)cc1OC	6.48 min
CC12C=CC(=O)C=C1CCC1C2C(=O)CC2(C)C1CCC2(O)C(=O)CO (stereo unspecified)	7.85 min
CNC(=O)Oc1cc(C)c(S(C)=O)c(C)c1 (stereo unspecified)	4.86 min
CC(CN1c2ccccc2Sc2ccc(S(=O)(=O)N(C)C)cc21)N(C)C (stereo unspecified)	7.01 min
CC1CCCC(C)N1CCCC(O)(c1ccccc1)c1ccccn1 (stereo unspecified)	6.01 min
CC1C(=O)OC2CC[N+]3([O-])CC=C(COC(=O)C(C)(O)C1(C)O)C23 (stereo unspecified)	3.19 min
CC(Cc1ccc(C(C)(C)C)cc1)CN1CCCCC1 (stereo unspecified)	8.62 min
CCOP(=S)(OCC)SCn1nnc2ccccc2c1=O	10.2 min
CCCN1CC(CSC)CC2c3cccc4[nH]cc(c34)CC21 (stereo unspecified)	6.19 min
CCOc1ccc(S(=O)(=O)O)c2cccnc12	3.56 min
CCOP(=S)(OCC)ON=C(C#N)c1ccccc1	11.2 min
COP(=S)(OC)Oc1ccc(S(N)(=O)=O)cc1	6.19 min
CCC(CC)OC1C=C(C(=O)O)CC(N)C1NC(C)=O (stereo unspecified)	4.73 min
CN(C)CCC(c1ccccc1)c1ccccn1 (stereo unspecified)	4.98 min
CCOC(=O)c1ccc(N)cc1	6.27 min
CSc1ccc2c(c1)N(CCC1CCCCN1C)c1ccccc1S2 (stereo unspecified)	9.34 min
Oc1ccc2c3c1OC1C(O)C=CC4C(C2)NCCC341 (stereo unspecified)	2.71 min
COc1nc(C)nc(N)n1	3.71 min
Cc1ccc(C2(c3ccccc3)NC(=O)NC2=O)cc1 (stereo unspecified)	8.12 min
CNCCCN1c2ccccc2CCc2ccccc21	8.08 min
Cc1ccc(N)c(C)c1	5.04 min
CCC(N)Cc1ccc2c(c1)OCO2 (stereo unspecified)	4.73 min
COc1cc2nc(N3CCN(C(=O)C4CCCO4)CC3)nc(N)c2cc1OC (stereo unspecified)	4.92 min
CC1(C)CC1C(=O)NC(=CCCCCSCC(N)C(=O)O)C(=O)O (stereo unspecified)	4.88 min
